The target of assay [1] is T1, Butyrophilin subfamily 3 member A1 (Homo sapiens, UniProt O00481). Kind of assay: Activation of BTN3A1 in human Vgamma9Vdelta2 T cells assessed as induction of interleukin 2 stimulated cell proliferation treated for 72 hrs measured on day 11 post last treatment by flow cytometry. On the technique in general: A flow cytometer gives signals particle by particle.
Assay [2] addresses T1, Butyrophilin subfamily 3 member A1. Kind of assay: Activation of BTN3A1 in human Vgamma9Vdelta2 T cells assessed as induction of T effector cells mediated K562 cell lysis preincubated with K562 cells for 2 hrs followed by T effector cell addition measured after 4 hrs.
Assay [3] in a line: Activation of BTN3A1 in human Vgamma9Vdelta2 T cells assessed as induction of T effector cells mediated K562 cell lysis preincubated with K562 cells for 2 hrs followed by T effector cell addition measured after 4 hrs.
Assay [4] can be described thus: Activation of BTN3A1 in human Vgamma9Vdelta2 T cells assessed as induction of interleukin 2 stimulated cell proliferation treated for 72 hrs measured on day 11 post last treatment by flow cytometry.

As a reminder, the EC50 is the concentration at which the effect is half-maximal.

T1 sequence (O00481 whole entry): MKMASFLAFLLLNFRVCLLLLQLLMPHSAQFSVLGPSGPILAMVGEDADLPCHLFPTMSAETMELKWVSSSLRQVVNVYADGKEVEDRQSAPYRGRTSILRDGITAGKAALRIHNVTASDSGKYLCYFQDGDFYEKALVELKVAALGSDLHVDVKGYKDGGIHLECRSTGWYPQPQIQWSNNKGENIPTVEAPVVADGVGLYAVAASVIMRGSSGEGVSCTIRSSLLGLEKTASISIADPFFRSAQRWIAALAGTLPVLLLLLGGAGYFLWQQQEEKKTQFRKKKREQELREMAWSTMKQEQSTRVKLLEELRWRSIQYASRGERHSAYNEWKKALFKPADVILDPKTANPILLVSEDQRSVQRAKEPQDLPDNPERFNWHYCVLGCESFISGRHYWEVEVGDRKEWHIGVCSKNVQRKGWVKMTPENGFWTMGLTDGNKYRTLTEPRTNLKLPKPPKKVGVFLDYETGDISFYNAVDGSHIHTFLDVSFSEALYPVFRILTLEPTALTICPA

Take `[C]C([C])=[C][C][C]P(=O)(O)[C]P(=O)(O)O`: the EC50 in assay [1] and in assay [2] was > 100 µM throughout. Turning to `CC(=CCCP(=O)(O)CP(=O)(O)O)CO`, the EC50 in assay [3] was 41 µM. As for `CC(C)=CCCP(=O)(CP(=O)(OCOC(=O)C(C)(C)C)OCOC(=O)C(C)(C)C)OCOC(=O)C(C)(C)C` (stereo not drawn), the EC50 in assay [3] is 7.3 µM; in assay [4] it was > 100 µM. For the compound `C/C(=C\CCP(=O)(CP(=O)(OCOC(=O)C(C)(C)C)OCOC(=O)C(C)(C)C)OCOC(=O)C(C)(C)C)CO` (stereo not drawn), in assay [3], the EC50 stood at 0.28 µM. `COP(=O)(CC/C=C(\C)CO)CP(=O)(OC)OC` (stereo not drawn): the EC50 in assay [3] and in assay [4] was > 100 µM each time.

The values are drawn from BindingDB's records for doi:10.1021/acs.jmedchem.6b00965 (University of Iowa, 2017).
